# Measurements from patent publication US20240228446A1, “PREPARATION METHOD FOR BICYCLIC COMPOUND AND APPLICATION AS ANTIFUNGAL AGENT” (priority 2021, published 2024).
# Test system: Candida albicans ATCC MYA-2876
# Assay: Minimal inhibitory concentration (MIC) test on fungal growth (CLSI M27, yeasts)
# Assay type: cell-based
# Conditions: Candida albicans, 24 h, read-out: MIC Candida albicans ATCC MYA-2876
# Method: • RPMI1640 medium: Brand: Gibco, article number: 31800-014 • Sabouraud dextrose agar (SDA): Brand: Hope Bio, article number: HB0253-81 • Voriconazole: Brand: Adamas, article number: 22105A • Amphotericin B: Brand: AbCam, article number: ab141199
# MIC test was conducted in accordance with the guidelines and requirements of CLSI M27 (for yeasts) and M38 (for Aspergillus).
# Strain preparation: The strains were inoculated 1 day in advance by streaking on SDA plates with glycerol strains stored at −80° C. The strains were cultured at 35° C. and 40 to 60% humidity for 18 to 24 hours. Streak inoculation of Aspergillus fumigatus and Cryptococcus neoformans was required to be done 3 days and 2 days in advance, respectively.
# Preparation of culture medium and compounds: The liquid culture medium RPMI was prepared with pure water, and 0.165 mol/L MOPS was added to adjust the pH to 7.0. The mixture was filtered with a 0.22 μm-membrane filter, sterilized, and stored at 4° C. (no more than 3 months). 0.85% physiological saline was sterilized at 121° C. for 30 min and then stored at room temperature (no more than 1 week). The compounds were dissolved in DMSO to 12.8 mg/mL and stored at −20° C.
# For yeast, 3 to 5 colonies were selected from the SDA plate on the day of testing and fully suspended in 5 mL of sterilized 0.85% physiological saline. The turbidity of the bacterial suspension was measured with a turbidimeter, and the turbidity was adjusted to approximately 0.2. The bacterial suspension was 50-fold and 20-fold (1000-fold in total) diluted in RPMI1640 medium, respectively, to serve as the inoculum. The final inoculum concentration was 500 to 2500 CFU/mL.
# The compound was diluted to the highest 800 μg/mL (or 400 μg/mL) with DMSO, and a 10-step 2-fold gradient dilution was performed, resulting in 11 concentrations. 2 μL of the gradient-diluted compound was transferred to the corresponding wells of a 96-well plate, and then 198 μL of the inoculum was transferred to the test plate. The plate was incubated at 35° C. for 24 hours (Aspergillus fumigatus and Cryptococcus neoformans were incubated for 48 and 72 hours, respectively).
# After the incubation, the growth of the fungi was visually observed. The lowest concentration of the compound that inhibited the growth of yeast by 50% (inhibited Aspergillus by 100%) was defined as the minimum inhibitory concentration (MIC, μg/mL). A magnifying glass or reading at OD530 nm could be used to assist in determining the MIC. Photos were taken of the test plates for record keeping.
row,SMILES,MIC
1,NC[C@H](O)COc1ccc(C23CC(C(F)(F)C(O)(Cn4cnnn4)c4ccc(F)cc4F)(C2)C3)cc1 (stereo partly shown) [Compound 52],1 µg/mL
2,CC(C)NC[C@@H](O)COc1ccc(C23CC(C(F)(F)C(O)(Cn4cnnn4)c4ccc(F)cc4F)(C2)C3)cc1 (stereo partly shown) [Compound 54],0.5 µg/mL
3,OC(COc1ccc(C23CC(C(F)(F)C(O)(Cn4cnnn4)c4ccc(F)cc4F)(C2)C3)cc1)CN1CCOCC1 (stereo not shown) [Compound 57],0.06 µg/mL
4,CN(C)CCOc1ccc(C23CC(C(F)(F)C(O)(Cn4cnnn4)c4ccc(F)cc4F)(C2)C3)cc1 (stereo not shown) [Compound 64],0.06 µg/mL
5,OC(Cn1cnnn1)(c1ccc(F)cc1F)C(F)(F)C12CC(c3ccc(Oc4ccccn4)cc3)(C1)C2 (stereo not shown) [Compound 71],0.03 µg/mL
6,COc1ccc(C23CC(C(F)(F)C(O)(Cn4cnnn4)c4ccc(F)cc4F)(C2)C3)cn1 (stereo not shown) [Compound 92],0.03 µg/mL
7,OCC(F)(F)CNc1ccc(C23CC(C(F)(F)C(O)(Cn4cnnn4)c4ccc(F)cc4F)(C2)C3)cn1 (stereo not shown) [Compound 104],0.03 µg/mL
8,OC(Cn1cnnn1)(c1ccc(F)cc1F)C(F)(F)C12CC(c3ccc(OCC(F)(F)F)cn3)(C1)C2 (stereo not shown) [Compound 105],0.016 µg/mL
9,OC(Cn1cnnn1)(c1ccc(F)cc1F)C(F)(F)C12CC(c3cnc(NCC(F)(F)F)nc3)(C1)C2 (stereo not shown) [Compound 111],0.016 µg/mL
10,OC(Cn1cnnn1)(c1ccc(F)cc1F)C(F)(F)C12CC(c3ccc(OCC(F)(F)F)nn3)(C1)C2 (stereo not shown) [Compound 114],0.06 µg/mL

# Same assay, conditions: Candida albicans; lowest concentration inhibiting growth of yeast by 50%; 35° C., 24 hours; RPMI1640; read-out: MIC Candida albicans ATCC MYA-2876
row,SMILES,MIC
1,CNC(=O)COc1ccc(C23CC(C(F)(F)C(O)(Cn4cnnn4)c4ccc(F)cc4F)(C2)C3)cc1 (stereo not shown) [Compound 34],0.016 µg/mL
2,CN1CCC(O)(COc2ccc(C34CC(C(F)(F)C(O)(Cn5cnnn5)c5ccc(F)cc5F)(C3)C4)cc2)CC1 (stereo not shown) [Compound 38],0.5 µg/mL
3,OC1CC(Oc2ccc(C34CC(C(F)(F)C(O)(Cn5cnnn5)c5ccc(F)cc5F)(C3)C4)cc2)C1 (stereo not shown) [Compound 39],0.0078 µg/mL
4,CN1CC[C@@H](Oc2ccc(C34CC(C(F)(F)C(O)(Cn5cnnn5)c5ccc(F)cc5F)(C3)C4)cc2)C1 (stereo partly shown) [Compound 42],0.06 µg/mL
5,CN1CC[C@H](Oc2ccc(C34CC(C(F)(F)C(O)(Cn5cnnn5)c5ccc(F)cc5F)(C3)C4)cc2)C1 (stereo partly shown) [Compound 43],0.03 µg/mL
6,OC(Cn1cnnn1)(c1ccc(F)cc1F)C(F)(F)C12CC(c3ccc(OC4CNC4)cc3)(C1)C2 (stereo not shown) [Compound 44],0.06 µg/mL
7,CN1CC(Oc2ccc(C34CC(C(F)(F)C(O)(Cn5cnnn5)c5ccc(F)cc5F)(C3)C4)cc2)C1 (stereo not shown) [Compound 45],0.03 µg/mL
8,OC(Cn1cnnn1)(c1ccc(F)cc1F)C(F)(F)C12CC(c3ccc(OCC(F)(F)F)nc3)(C1)C2 (stereo not shown) [Compound 46],0.03 µg/mL
9,OC(Cn1cncn1)(c1ccc(F)cc1F)C(F)(F)C12CC(c3ccc(OCC(F)(F)F)nc3)(C1)C2 (stereo not shown) [Compound 47],0.0078 µg/mL
10,OC(Cn1cnnn1)(CC12CC(c3ccc(OCC(F)(F)F)cc3)(C1)C2)c1ccc(F)cc1F (stereo not shown) [Compound 48],0.06 µg/mL
11,CC(C)NC[C@H](O)COc1ccc(C23CC(C(F)(F)C(O)(Cn4cnnn4)c4ccc(F)cc4F)(C2)C3)cc1 (stereo partly shown) [Compound 53],0.5 µg/mL
12,CN(C)C[C@@H](O)COc1ccc(C23CC(C(F)(F)C(O)(Cn4cnnn4)c4ccc(F)cc4F)(C2)C3)cc1 (stereo partly shown) [Compound 55],0.25 µg/mL
13,CN(C)C[C@H](O)COc1ccc(C23CC(C(F)(F)C(O)(Cn4cnnn4)c4ccc(F)cc4F)(C2)C3)cc1 (stereo partly shown) [Compound 56],0.5 µg/mL
14,O[C@H](COc1ccc(C23CC(C(F)(F)C(O)(Cn4cnnn4)c4ccc(F)cc4F)(C2)C3)cc1)CN1CCOCC1 (stereo partly shown) [Compound 58],0.06 µg/mL
15,O=C1NC[C@H](COc2ccc(C34CC(C(F)(F)C(O)(Cn5cnnn5)c5ccc(F)cc5F)(C3)C4)cc2)O1 (stereo partly shown) [Compound 59],0.13 µg/mL
16,O=C1NC[C@@H](COc2ccc(C34CC(C(F)(F)C(O)(Cn5cnnn5)c5ccc(F)cc5F)(C3)C4)cc2)O1 (stereo partly shown) [Compound 60],0.06 µg/mL
17,COCCOc1ccc(C23CC(C(F)(F)C(O)(Cn4cnnn4)c4ccc(F)cc4F)(C2)C3)cc1 (stereo not shown) [Compound 62],0.016 µg/mL
18,NS(=O)(=O)Oc1ccc(C23CC(C(F)(F)C(O)(Cn4cnnn4)c4ccc(F)cc4F)(C2)C3)cc1 (stereo not shown) [Compound 68],0.13 µg/mL
19,O=C(COc1ccc(C23CC(C(F)(F)C(O)(Cn4cnnn4)c4ccc(F)cc4F)(C2)C3)cc1)N1CCOCC1 (stereo not shown) [Compound 70],0.13 µg/mL
20,OC(Cn1cnnn1)(c1ccc(F)cc1F)C(F)(F)C12CC(c3ccc(OCc4ccccn4)cc3)(C1)C2 (stereo not shown) [Compound 72],0.03 µg/mL
21,OC(Cn1cnnn1)(c1ccc(F)cc1F)C(F)(F)C12CC(c3ccc(OCc4nccs4)cc3)(C1)C2 (stereo not shown) [Compound 73],0.016 µg/mL

row,SMILES,MIC
1,CN1CCC(COc2ccc(C34CC(C(F)(F)C(O)(Cn5cnnn5)c5ccc(F)cc5F)(C3)C4)cc2)CC1 (stereo not shown) [Compound 74],0.13 µg/mL
2,CN1CC(COc2ccc(C34CC(C(F)(F)C(O)(Cn5cnnn5)c5ccc(F)cc5F)(C3)C4)cc2)C1 (stereo not shown) [Compound 75],0.13 µg/mL
3,COC(=O)c1ccc(C23CC(C(F)(F)C(O)(Cn4cnnn4)c4ccc(F)cc4F)(C2)C3)cc1 (stereo not shown) [Compound 77],0.016 µg/mL
4,CNC(=O)c1ccc(C23CC(C(F)(F)C(O)(Cn4cnnn4)c4ccc(F)cc4F)(C2)C3)cc1 (stereo not shown) [Compound 79],0.25 µg/mL
5,OC(Cn1cnnn1)(c1ccc(F)cc1F)C(F)(F)C12CC(CN3CCC(Oc4ccccc4)CC3)(C1)C2 (stereo not shown) [Compound 80],0.06 µg/mL
6,N#Cc1ccc(C23CC(C(F)(F)C(F)(Cn4cncn4)c4ccc(F)cc4F)(C2)C3)cc1 (stereo not shown) [Compound 83],0.06 µg/mL
7,OC(Cn1cnnn1)(c1ccc(F)cc1F)C(F)(F)C12CC(c3ccc(O[C@@H]4CCNC4)cc3)(C1)C2 (stereo partly shown) [Compound 84],0.25 µg/mL
8,CN1CCOC(COc2ccc(C34CC(C(F)(F)C(O)(Cn5cnnn5)c5ccc(F)cc5F)(C3)C4)cc2)C1 (stereo not shown) [Compound 85],0.03 µg/mL
9,OC(COCc1ccc(C23CC(C(F)(F)C(O)(Cn4cnnn4)c4ccc(F)cc4F)(C2)C3)cn1)C(F)(F)F (stereo not shown) [Compound 86],0.06 µg/mL
10,CCOc1ccc(C23CC(C(F)(F)C(O)(Cn4cnnn4)c4ccc(F)cc4F)(C2)C3)cc1 (stereo not shown) [Compound 87],0.016 µg/mL
11,CS(=O)(=O)c1ccc(C23CC(C(F)(F)C(O)(Cn4cnnn4)c4ccc(F)cc4F)(C2)C3)cc1 (stereo not shown) [Compound 88],0.25 µg/mL
12,O[C@H](COc1ccc(C23CC(CC(O)(Cn4cnnn4)c4ccc(F)cc4F)(C2)C3)cc1)C(F)(F)F (stereo partly shown) [Compound 89],0.016 µg/mL
13,N#Cc1ccc(C23CC(CC(O)(Cn4cncn4)c4ccc(F)cc4F)(C2)C3)cc1 (stereo not shown) [Compound 91],≤ 0.0039 µg/mL
14,OC(Cn1cncn1)(c1ccc(F)cc1F)C(F)(F)C12CC(c3ccc(-n4cncn4)nc3)(C1)C2 (stereo not shown) [Compound 95],≤ 0.0039 µg/mL
15,OC(COc1ccc(C23CC(C(F)(F)C(O)(Cn4cnnn4)c4ccc(F)cc4F)(C2)C3)cn1)C(F)(F)F (stereo not shown) [Compound 97],0.0078 µg/mL
16,OC(CNc1ccc(C23CC(C(F)(F)C(O)(Cn4cnnn4)c4ccc(F)cc4F)(C2)C3)cn1)C(F)(F)F (stereo not shown) [Compound 99],0.016 µg/mL
17,OC(CNc1ccc(C23CC(C(F)(F)C(O)(Cn4cncn4)c4ccc(F)cc4F)(C2)C3)cn1)C(F)(F)F (stereo not shown) [Compound 100],0.0078 µg/mL
18,OC(Cn1cnnn1)(c1ccc(F)cc1F)C(F)(F)C12CC(c3cnc(OCC(F)(F)F)cn3)(C1)C2 (stereo not shown) [Compound 107],0.06 µg/mL
19,OC(COc1cnc(C23CC(C(F)(F)C(O)(Cn4cnnn4)c4ccc(F)cc4F)(C2)C3)cn1)C(F)(F)F (stereo not shown) [Compound 108],0.06 µg/mL
20,OC(Cn1cnnn1)(c1ccc(F)cc1F)C(F)(F)C12CC(c3cnc(OCC(F)(F)F)nc3)(C1)C2 (stereo not shown) [Compound 110],0.06 µg/mL

# Same assay, conditions: lowest concentration inhibiting growth of yeast by 50%; 35° C., 24 hours; RPMI1640
row,SMILES,MIC Candida albicans ATCC MYA-2876
1,O[C@](Cn1cnnn1)(CC12CC(c3ccc(OCC(F)(F)F)cc3)(C1)C2)c1ccc(F)cc1F [Compound 48A],0.016 µg/mL
